Data set [1] deals with C3H kidney allografts in presensitized BALB/c recipients. The following applies: kidney allograft model development. The text has this: Animals Male adult C3H (H-2^k) mice and BALB/c (H-2^d mice (Jackson Labs, Bar Harbor, Me.) weighing 25-30 g were chosen as donors and recipients, respectively. Animals were housed under conventional conditions at the Animal Care Facility, The University of Western Ontario, and were cared for in accordance with the guidelines established by the Canadian Council on Animal Care.
Skin Presensitization Full-thickness skin grafts taken from C3H donors were cut into 1×1 cm^2 pieces and transplanted onto the backs of BALB/c recipient mice. Rejection was defined as complete necrosis of the skin grafts.
The donor ureter was also sutured to the recipient bladder using 10-0 sutures. The native kidneys were removed immediately after grafting. Graft rejection leading to host death was used as the endpoint of rejection for kidney transplants.
Measurement of Serum Creatinine Serum samples were obtained at study endpoint (time of rejection or POD100) after kidney transplantation. Serum creatinine levels were quantitated in 10 μL samples using the Sigma Diagnostics (Sigma, St. Louis, Mo.) procedure, which measures creatinine by a kinetic modification of the Jaffe reaction (Junge et al., 2004). Graft Histology At necropsy, tissue samples were processed for hematoxylin and eosin (H&E) staining (Wang et al, JI 2003) and evaluated for vasculitis, thrombosis, hemorrhage and lymphocyte infiltration; changes were scored as: 0, none; 1, minimal; 2, mild; 3, moderate or 4, marked compared to normal tissues.

In data set [2] the test system is C3H heart allografts in presensitized BALB/c recipients. Description: C3H heart allograft survival and histology in skin-presensitized BALB/c recipients (Examples 1-2). It is filed as in vivo, mouse. The following applies: FIG. 2A. An excerpt: Rejection was defined as complete necrosis of the skin grafts.
Specimens were then embedded in paraffin, and sectioned for H&E staining. The microscopic sections were examined in a blinded fashion for severity of rejection by a pathologist. Criteria for graft rejection included the presence of vasculitis, thrombosis, hemorrhage and lymphocyte infiltration. These changes were scored as: 0, no change; 1, minimum change; 2, mild change; 3, moderate change; or 4, marked change.

The subject of data set [3] is circulating anti-donor IgG and IgM antibodies. As to the kind of experiment: Flow cytometry of circulating anti-donor antibodies (heart model). The format is in vivo, mouse. The conditions noted are these: POD3, presensitized heart recipients, FIG. 4A. The procedure: Flow Cytometry The circulating anti-donor specific IgG and IgM antibodies were evaluated in the recipient serum by FACScan flow cytometry (Becton Dickinson, Mountain View, Calif.). Glotz et al., (1993); Tyan et al. (1994). Briefly, C3H mouse splenocytes were isolated and incubated at 37° C. for 30 minutes with serum from naive control and experimental groups. To stain for total IgG, IgG1, IgG2a, IgG2b and IgM, the cells were washed and incubated with FITC-conjugated goat antibody specific for the Fc portion of mouse IgG or with phycoerythrin-conjugated goat antibody specific for the μ-chain of mouse IgM (Jackson ImmunoResearch Laboratories, West Grove, Pa.), or with FITC-conjugated goat anti-mouse IgG1 (CALTAG Laboratories, Burlingame, Calif.), or with FITC-conjugated goat anti-mouse IgG2a (CALTAG), or with FITC-conjugated goat anti-mouse IgG2b (CALTAG). After 1 hour of staining at 4° C., the cells were washed with PBS, resuspended at 5×10^6/mL, and analyzed by flow cytometry for mean channel fluorescence intensity, which represents the antibody-binding reactivity.

Data set [4] deals with terminal complement activity. Description: Complement hemolytic assay of recipient mouse sera (heart model). The format is in vivo. The following applies: POD3, presensitized heart recipients, FIG. 3. As to the method:
Complement Hemolytic Assay The purified anti-C5 mAb was serially diluted twofold (175-0.1 μg/ml) in GVB^2+ buffer (gelatin Veronal-buffered saline: 0.1% gelatin, 141 mM NaCl, 0.5 mM MgCl2, 0.15 mM CaCl2, and 1.8 mM sodium barbital) and added in triplicate (50 μl/well) to a 96-well plate. BALB/c mouse serum was diluted to 40% v/v with GVB^2+ buffer and added ([…]) to the rows of the same 96-well plate such that the final concentration of BALB/c mouse serum in each well was 20%. The plate was then incubated at room temperature for approximately 30 min while chicken erythrocytes were prepared. Chicken erythrocytes were washed 5×1 ml with GVB^2+ buffer and resuspended to a final concentration of 5×10^7/ml in GVB^2+. Four milliliters of the chicken erythrocytes were sensitized by adding anti-chicken RBC polyclonal antibody (Intercell Technologies, Hopewell, N.J., 0.1% v/v) and the cells were incubated at 4° C. for 15 min with frequent vortexing. The cells were then washed 2×1 ml with GVB^2+ and resuspended to a final volume of 2.4 ml in GVB^2+. […] The plate was read at OD 415 nm using a microplate reader and the percentage of hemolysis was determined using this formula: […]
In the current study, terminal complement activity was measured by assessing the ability of recipient mouse sera to lyse antibody presensitized chicken erythrocytes and was compared at the same time-point (POD3).

SMILES strings stand for the structures.

As for `O=P1(N(CCCl)CCCl)NCCCO1` (stereo not shown) [CyP, cyclophosphamide], the nephrotoxicity result in data set [1] is on record as “significant nephrotoxicity”. Further, the “heart graft survival (time to rejection)” value in data set [2] came out at 3.3 ± 0.5 days. In data set [3], the “circulating anti-donor IgG levels” value was “partially down-regulated”. Moreover, in data set [4], the “terminal complement activity (lysis of antibody presensitized chicken erythrocytes by recipient sera)” value was “no effect”.
